Data taken from patent US12435032B2, “L-γ-methyleneglutamine compounds and methods of use” (University of Mississippi, priority 2019, dated 2025).
pEC50, pIC50: −log10 of the molar value. Read-outs that look alike come from different tables or passages of the source.

Legend:
[1] = test system: central nervous system (CNS); conditions: cited from earlier work
newborn rat spinal cord = conditions: cited from earlier work
[2] = Cytotoxicity (cell death, propidium iodide) in MCF-10A cells; assay type: cell-based; conditions: human, MCF-10A non-cancerous breast cells
Method: (§1) To assess the selectivity of cytotoxicity for cancer cells, all drugs and compounds were screened against MCF-10A, non-cancerous breast cells.
(§2) Cells were incubated for 15 minutes at 37° C.

[3] = test system: MCF-10A non-cancerous breast cells; test: Growth inhibition of MCF-10A cells (negative control line); assay type: cell-based; conditions: Homo sapiens, dose-response 0.32-320 μM
Method: (§3) Olaparib was chosen because it is one of a few FDA-approved chemotherapeutics for triple-negative breast cancer.
as §2

[4] = test system: SK-BR-3 (ER−/PR−/HER2+) breast cancer cells; test: Growth inhibition of SK-BR-3 cells; assay type: cell-based; conditions: Homo sapiens, dose-response 0.32-320 μM
Method: as §3, §2

[5] = test system: triple-negative MDA-MB-231 breast cancer cells
[6] = test system: triple-negative MDA-MB-231 breast cancer cells; test: Growth inhibition of MDA-MB-231 cells; assay type: cell-based; conditions: for pIC50: Homo sapiens
Method: as §3, §2

[7] = test system: triple-negative MDA-MB-231 breast cancer cells; test: cells; conditions: Homo sapiens, read-out: Cytotoxicity EC50
[8] = test system: MCF-7 breast cancer cells; test: Cytotoxicity (cell death, propidium iodide) in MCF-7 cells; assay type: cell-based; conditions: Homo sapiens, MCF7, dose-response 0.32-320 μM, read-out: Cytotoxicity EC50
[9] = test system: SK-BR-3 breast cancer cells; test: Cytotoxicity (cell death, propidium iodide) in SK-BR-3 cells; assay type: cell-based; conditions: for pEC50: Homo sapiens, dose-response 0.32-320 μM; for cytotoxicity EC50: SK-BR-3, 72 h / after the first 24 h
[10] = test system: MCF-7 (ER+/PR+/HER2−) breast cancer cells; test: Growth inhibition of MCF-7 cells (Hoechst 33342 fluorescence vs non-treated wells); assay type: cell-based; conditions: Homo sapiens, dose-response 0.32-320 μM
Method: as §3, §2

[11] = test system: MCF-10A non-cancerous breast cells; test: Cytotoxicity (cell death, propidium iodide) in MCF-10A cells; assay type: cell-based; conditions: within the first 24 h
Method: as §1, §2

[12] = MDA-MB-231, 24 h exposure, dose-response 0.32-320 μM
[13] = MDA-MB-231, 72 h exposure, dose-response 0.32-320 μM
[14] = MCF7, 24 h, MCF-7, 24 h exposure
[15] = MCF7, 72 h, MCF-7, 72 h exposure

Row | SMILES | EC50 at 24 h ([2]; 24 h exposure) | EC50 at 24 h ([2]; head prints 24 h) | pIC50 ([3]; 24 h exposure) | pIC50 ([3]; 72 h exposure) | pIC50 ([4]; SK-BR-3, 24 h exposure) | pIC50 ([4]; SK-BR-3, 72 h exposure) | pIC50 [6, 12] | pIC50 [6, 13] | pEC50 ([7]; MDA-MB-231, 24 h) | pEC50 ([7]; MDA-MB-231, 72 h) | pEC50 ([8]; MCF-7, 24 h exposure) | pEC50 ([8]; MCF-7, 72 h exposure) | pEC50 ([9]; SK-BR-3, 24 h exposure) | pEC50 ([9]; SK-BR-3, 72 h exposure) | cytotoxicity EC50 [9] | pIC50 [10, 14] | pIC50 [10, 15] | also measured
1 | C=C(C[C@H](N)C(=O)O)C(=O)O [Compound 2, L-γ-methyleneglutamic acid] | – | – | – | – | – | – | – | – | – | – | – | – | – | – | – | – | – | central nervous system (CNS) inhibitory activity [1]: strong; potency relative to L-glutamate as a depolarizing agent (newborn rat spinal cord): 10 times
2 | C=C(C[C@H](N)C(=O)O)C(=O)Nc1ccccc1 [Compound 3, (S)-2-amino-4-(phenylcarbamoyl) pent-4-enoic acid] | > 1000 µM | > 1000 µM | < 3.00 | < 3.00 | 4.43 | 5.77 | 3.11 | 3.09 | 3.27 | 3.39 | 3.38 | 5.70 | 6.70 | < 3.00 | much reduced toxicity | < 3.00 | 3.60 | cytotoxic EC50 compared with positive controls [5]: significantly greater than tamoxifen; Growth Inhibition IC50 [6, 13]: poorer potency than olaparib
3 | C=C(C[C@H](N)C(=O)O)C(=O)NCc1ccc(F)cc1 [Compound 5, (S)-2-amino-4-((4-fluorobenzyl)carbamoyl)pent-4-enoic acid] | 796 µM | > 1000 µM | < 3.00 | < 3.00 | 5.41 | 5.35 | 3.46 | 3.47 | 3.58 | 3.58 | < 3.00 | 4.26 | < 3.00 | 6.40 | cell death was apparent | 3.23 | 4.07 | cytotoxicity EC50 [11]: EC50 below the millimolar range; growth inhibition potency compared with olaparib ([6]; MDA-MB-231, throughout testing (24 h and 72 h)): equipotent to olaparib; cytotoxicity ([9]; SK-BR-3, 24 h exposure): devoid of toxicity
